One series concerns Hap-1 cells. Description: Cell proliferation assay (IncuCyte confluence), Hap-1. The series is classed as cell-based. The following applies: Homo sapiens, HAP1; Hap-1 chronic myeloid leukemia; 72 h; mean of two independent experiments ± SEM; read-out: IC50 antiproliferative activity Hap-1. As to the method:
(§1) Cancer cell lines HCT-116, NCI-H460, HL-60, K-562 and Z-138 were acquired from the American Type Culture Collection (ATCC, Manassas, VA, USA). The DND-41 cell line was purchased from the Deutsche Sammlung von Mikroorganismen und Zellkulturen (DSMZ Leibniz-Institut, Brunswick, Germany), and the HAP-1 cell line was ordered from Horizon Discovery (Horizon Discovery Group, Water Beach, UK). All cell lines were cultured as recommended by the suppliers. Culture media were purchased from Gibco Life Technologies and supplemented with 10% fetal bovine serum (HyClone, GE Healthcare Life Sciences, Chicago, Illinois, USA).
(§2) Adherent cell lines HCT-116, NCI-H460 and Hap-1 cells were seeded at a density between 500 and 1500 cells per well in 384-well tissue culture plates (Greiner). After overnight incubation, cells were treated with different concentrations of the test compounds. Suspension cell lines HL-60, K-562, Z-138 and DND-41 were seeded at densities ranging from 2500 to 5500 cells per well in 384-well culture plates containing the test compounds at the same concentration points.

The subject of a further series is HCT-116 cells. The experiment in a line: Cell proliferation assay (IncuCyte confluence), HCT-116. The series is classed as cell-based. The conditions noted are these: Homo sapiens; HCT-116 colorectal carcinoma; 72 h; mean of two independent experiments ± SEM; read-out: IC50 antiproliferative activity HCT-116. As to the method: as §1, §2
For another series, the system named is NCI-H460 cells. Description: Cell proliferation assay (IncuCyte confluence), NCI-H460. Format: cell-based. The following applies: Homo sapiens; NCI-H460 lung carcinoma; 72 h; mean of two independent experiments ± SEM; read-out: IC50 antiproliferative activity NCI-H460. As to the method: as §1, §2
For a further series, the system named is DND-41 cells. The experiment in a line: Cell proliferation assay (IncuCyte confluence), DND-41. The series is classed as cell-based. The following applies: DND41; DND-41 acute lymphoblastic leukemia; 72 h; mean of two independent experiments ± SEM; read-out: IC50 antiproliferative activity DND-41. As for the experimental part: as §1, §2
The next series relates to HL-60 cells. The experiment in a line: Cell proliferation assay (IncuCyte confluence), HL-60. The series is classed as cell-based. The conditions noted are these: Homo sapiens; HL-60 acute myeloid leukemia; 72 h; mean of two independent experiments ± SEM; read-out: IC50 antiproliferative activity HL-60. As to the method:
as §1, §2

A further series has as its system K-562 cells. The experiment in a line: Cell proliferation assay (IncuCyte confluence), K-562. Format: cell-based. The following applies: Homo sapiens, K562; K-562 chronic myeloid leukemia; 72 h; mean of two independent experiments ± SEM; read-out: IC50 antiproliferative activity K-562. As to the method: as §1, §2
The target in the next series is T1, XPO1 (Homo sapiens, UniProt O14980).
T1 construct: the compounds were assayed in a reporter cell line based on the subcellular localization of a XPO1-dependent GFP reporter cargo protein; endogenous in cells; host or cells: HeLa cells stably transfected with the NLSSV40-AcGFP-NESPKI reporter (only the reporter cargo is transfected, not XPO1)
T1 sequence (O14980 whole entry): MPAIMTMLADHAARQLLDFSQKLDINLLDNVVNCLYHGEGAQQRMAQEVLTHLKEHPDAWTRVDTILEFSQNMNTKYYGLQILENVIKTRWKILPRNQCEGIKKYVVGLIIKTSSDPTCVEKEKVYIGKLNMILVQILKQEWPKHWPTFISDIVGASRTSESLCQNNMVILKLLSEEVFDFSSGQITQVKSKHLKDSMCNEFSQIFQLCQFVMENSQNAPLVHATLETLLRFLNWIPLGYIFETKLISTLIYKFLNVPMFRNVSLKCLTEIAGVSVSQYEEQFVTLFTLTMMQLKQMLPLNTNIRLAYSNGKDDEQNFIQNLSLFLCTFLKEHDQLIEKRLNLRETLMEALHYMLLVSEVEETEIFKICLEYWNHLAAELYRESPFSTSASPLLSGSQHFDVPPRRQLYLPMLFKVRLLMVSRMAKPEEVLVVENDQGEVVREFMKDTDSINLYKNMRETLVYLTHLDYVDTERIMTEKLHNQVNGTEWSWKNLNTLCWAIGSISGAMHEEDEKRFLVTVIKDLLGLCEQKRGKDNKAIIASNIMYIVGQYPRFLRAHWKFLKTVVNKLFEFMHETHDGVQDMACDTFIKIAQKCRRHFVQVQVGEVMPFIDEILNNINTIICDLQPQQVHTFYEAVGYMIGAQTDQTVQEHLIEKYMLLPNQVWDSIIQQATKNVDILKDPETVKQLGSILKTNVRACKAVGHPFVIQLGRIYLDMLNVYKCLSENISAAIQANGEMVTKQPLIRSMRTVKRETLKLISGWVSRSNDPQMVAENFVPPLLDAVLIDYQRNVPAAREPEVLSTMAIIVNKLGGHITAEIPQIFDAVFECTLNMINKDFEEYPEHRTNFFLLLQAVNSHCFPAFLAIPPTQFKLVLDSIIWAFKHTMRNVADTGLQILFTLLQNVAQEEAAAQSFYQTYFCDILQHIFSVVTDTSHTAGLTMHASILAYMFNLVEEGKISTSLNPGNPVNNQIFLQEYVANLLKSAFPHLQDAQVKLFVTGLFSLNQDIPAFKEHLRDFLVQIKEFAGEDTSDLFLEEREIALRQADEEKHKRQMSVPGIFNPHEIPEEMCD
The experiment in a line: XPO1 phenotypic reporter assay in HeLa NLSSV40-AcGFP-NESPKI cells. The series is classed as cell-based. The conditions noted are these: HeLa GFP reporter cell line; 2 h treatment; mean ± SEM of two independent experiments; read-out: XPO1 inhibition IC50. As for the experimental part: (§3) Stably transfected HeLa NLSSV40-AcGFP-NESPKI were cultured as described in Vercruysse et al.
To study the XPO1-mediated nuclear export, stably transfected HeLa NLSSV40-AcGFP-NESPKI reporter cells were seeded at 8000 cells per well in 96-well all clear tissue culture plates (TPP). After overnight incubation, cells were treated with different doses of compound or solvent (DMSO) for 2 h and then fixed and counterstained with DAPI. Fluorescence was read on an ArrayScan XTI High Content Reader (Thermo Fisher Scientific, Waltham, MA, USA). Nuclear and cytoplasmic compartments were segmented and their average pixel intensities in the green channel were quantitated employing the HCS Studio software. Genedata Screener software was used for dose-response curve fitting, and calculation of EC50 values was based on the percentage of cells having a predominant nuclear localisation (ratio of nuclear to cytoplasmic signal equal or above 1.4) of the reporter construct. Compounds were tested in two independent experiments and represented as mean ± SEM.
(In general: In a reporter assay the amount or activity of a reporter protein is the signal.)

Another series deals with T2, XPO1 (Jurkat XPO1^WT) (Homo sapiens, UniProt O14980).
T2 construct: RanBP1 immunofluorescence staining was performed on both wild type and mutant XPO1^C528S Jurkat cells; endogenous in cells; host or cells: wild-type Jurkat leukemia cells
The experiment in a line: RanBP1 immunofluorescence (XPO1-mediated nuclear export) in wild-type Jurkat cells. The following applies: 3 h; for Subcellular localization of RanBP1, wild-type Jurkat: compound at 4 μM; for IC50: nuclear export of RanBP1 cargo, wild-type Jurkat, mean ± SD of two independent experiments, read-out: IC50 XPO1 inhibition Jurkat XPO1^WT. The series is classed as cell-based. As for the experimental part: (§4) The effect of the mutation on the activity of the inhibitors was assessed by the visualization of the subcellular localization of the XPO1 cargo RanBP1.
as §3
(§5) Cells were harvested at 400× g, washed in PBS and then transferred into an 8-well µ-Slide (Ibidi) pretreated with 0.1% (w/v) poly-L-lysine (Sigma). Cells were allowed to adhere to the slides and then subsequently fixed (4% PFA in PBS), washed and permeabilized (0.2% Triton X-100 in PBS). Further immunofluorescence staining was then performed according to standard procedures. Employed antibodies were rabbit anti-RanBP1 (ab97659, Abcam, Cambridge, UK) at a 1:500 dilution and secondary Alexa Fluor 488 goat anti-rabbit antibody (A11008, Invitrogen, ThermoFisher Scientific). Cell nuclei were counterstained with DAPI, and the samples were imaged by confocal microscopy on a Leica TCS SP5 confocal microscope (Leica Microsystems, Weitzlar, Germany), employing a HCX PL APO 63× (NA 1.2) water immersion objective. Subsequently, fluorescence was read on an ArrayScan XTI High Content Reader (Thermo Fisher Scientific, Waltham, MA, USA). Nuclear and cytoplasmic compartments were segmented, and their average pixel intensities in the green channel were quantitated similarly as for the XPO1 phenotypic reporter assay.

The target of series [1] is T3, XPO1^C528S (Jurkat XPO1^C528S) (Homo sapiens, UniProt O14980, C528S).
T3 construct: CRISPR/Cas9 genome editing of the Jurkat cell line was performed as in Neggers et al. [43] to generate a XPO1^C528S mutant cell line; endogenous in cells; host or cells: Jurkat cells genome-edited by CRISPR/Cas9 at the XPO1 locus (XPO1^C528S)
T3 sequence (O14980 whole entry C528S): as the sequence (O14980 whole entry) above, with C528S counted along it
The experiment in a line: RanBP1 immunofluorescence (XPO1-mediated nuclear export) in mutant XPO1^C528S Jurkat cells. The series is classed as cell-based. The conditions noted are these: for Subcellular localization of RanBP1, mutant XPO1^C528S Jurkat: compound at 4 μM; for Subcellular localization of RanBP1, mutant XPO1^C528S Jurkat / IC50: 3 h; for XPO1 inhibitory activity against Jurkat XPO1^C528S, in words / IC50: mutant XPO1^C528S Jurkat; for IC50: nuclear export of RanBP1 cargo, mean ± SD of two independent experiments, read-out: IC50 XPO1 inhibition Jurkat XPO1^C528S. As for the experimental part:
as §4, §3, §5

The subject of series [2] is panel of cancer cell lines. Description: Antiproliferative activity, panel of cancer cell lines. Format: cell-based. The conditions noted are these: for Fold less potent than KPT-330 (antiproliferative IC50): all cell lines tested; for Antiproliferative activity, in words: panel of cancer cell lines. As for the experimental part:
as §2

Where “and” joins values, the source holds several entries; their conditions need not be identical. Equal entries are not always repeated.

In general, IC50 refers to the concentration that inhibits the measured activity by half. By melting point is commonly meant the temperature, or range, at which the solid turns liquid. The molecule `O=C(/C=C/c1cncnc1)c1ccc2ccccc2c1` [Compound 9, (E)-1-(Naphthalen-2-yl)-3-(pyrimidin-5-yl)prop-2-en-1-one] yielded a melting point of 175 to 177 °C. Moreover, in the series on Hap-1 cells, the concentration for half-maximal inhibition (IC50) turned out to be 2300 ± 200 nM. The IC50 in the series on HCT-116 cells stood at 2400 ± 200 nM. Moreover, the half-inhibitory concentration (IC50) in the series with NCI-H460 cells was 2100 ± 100 nM. Moreover, the half-inhibitory concentration (IC50) with DND-41 cells stood at 2100 ± 500 nM. Besides, the half-maximal inhibitory concentration (IC50) in the series on HL-60 cells was determined as 2000 ± 500 nM. For the same molecule, the IC50 with K-562 cells is 1800 ± 80 nM. Moreover, at XPO1, the IC50 is 2500 nM and 2460 nM. For the same molecule, on XPO1 (Jurkat XPO1^WT), the “Subcellular localization of RanBP1, wild-type Jurkat” value was “RanBP1 accumulated in the nucleus” and the IC50 stood at 2200 ± 30 nM. Besides, in series [1], the “Subcellular localization of RanBP1, mutant XPO1^C528S Jurkat” value is on record as “its nuclear export was not inhibited”; the “XPO1 inhibitory activity against Jurkat XPO1^C528S, in words” value was “lost their inhibitory activity”; the IC50 was > 5000 nM. Besides, in series [2], the “Fold less potent than KPT-330 (antiproliferative IC50)” value is on record as 5- to 30 fold and the “Antiproliferative activity, in words” value is “single digit µM IC50 values”.

`COc1cc(OC)cc(C(=O)/C=C/c2cncnc2)c1` [Compound 10, (E)-1-(3′,5′-Dimethoxyphenyl)-3-(pyrimidin-5′’-yl)prop-2-en-1-one] gave a melting point of 184 to 185 °C. In addition, the half-inhibitory concentration (IC50) with Hap-1 cells was found to be 2100 ± 200 nM. For the same molecule, in the series with HCT-116 cells, the IC50 was 4700 ± 1700 nM. The IC50 in the series on NCI-H460 cells is 3500 ± 1500 nM. Also, the IC50 with DND-41 cells was found to be 1500 ± 200 nM. The IC50 in the series with HL-60 cells was found to be 2200 ± 300 nM. Besides, the IC50 with K-562 cells turned out to be 7200 ± 1900 nM. The IC50 at XPO1 was 550 ± 190 nM. On XPO1 (Jurkat XPO1^WT), the “Subcellular localization of RanBP1, wild-type Jurkat” value is given as “RanBP1 accumulated in the nucleus” and the IC50 is 300 ± 300 nM. In [1], the “Subcellular localization of RanBP1, mutant XPO1^C528S Jurkat” value is given as “its nuclear export was not inhibited”; the “XPO1 inhibitory activity against Jurkat XPO1^C528S, in words” value is “lost their inhibitory activity”; the IC50 was > 5000 nM. In addition, in series [2], the “Fold less potent than KPT-330 (antiproliferative IC50)” value is reported as 5- to 30 fold and the “Antiproliferative activity, in words” value is “single digit µM IC50 values”.

For the origin of these results see publication PMC8621101, “Inhibition of XPO-1 Mediated Nuclear Export through the Michael-Acceptor Character of Chalcones” (Pharmaceuticals, 2021).
